Test results taken from patent publication US20260297042A1, “BIARYLAMIDE DERIVATIVES AND THEIR USE AS PKMYT1 INHIBITORS” (CANCER RESEARCH TECHNOLOGY LIMITED, priority 2023, published 2026).

Experiments:
Human PKMYT1 = target: T1, Human PKMYT1 (Homo sapiens, UniProt Q99640); experiment: PKMYT1 biochemical ADP-Glo enzymatic assay; details: ADP-Glo
T1 construct: Human PKMYT1 75-362 was cloned as a TEV cleavable 6xHis fusion; 6xHis (TEV cleavable) (cleaved yes); made in house; host or cells: bacterial cells
T1 sequence (Q99640 75-362): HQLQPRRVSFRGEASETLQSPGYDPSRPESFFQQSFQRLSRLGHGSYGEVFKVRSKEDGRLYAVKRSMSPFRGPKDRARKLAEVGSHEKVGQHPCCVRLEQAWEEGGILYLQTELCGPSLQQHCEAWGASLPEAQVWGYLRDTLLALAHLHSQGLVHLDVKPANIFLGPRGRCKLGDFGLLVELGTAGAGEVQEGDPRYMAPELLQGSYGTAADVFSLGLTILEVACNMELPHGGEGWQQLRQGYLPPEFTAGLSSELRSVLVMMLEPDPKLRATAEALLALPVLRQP
Method in brief: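 Purified untagged human PKMYT1 75-362 at 15 nM final was tested in HEPES pH 7.5 with MgCl2, EGTA, Brij-35 and 1% DMSO. Intrinsic ATPase activity was measured with 500 uM ATP over 60 min at 26° C. ADP-Glo luminescence was read and IC50 fitted from 10-point, 3-fold dilution curves.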

WEE1 = target: T2, WEE1 (Homo sapiens, UniProt P30291); experiment: Selectivity versus WEE1 assay (ADP-Glo enzymatic assay); type: biochemical; details: for IC50: ADP-Glo; for PKMYT1 vs. WEE1 selectivity: fold difference in selectivity for PKMYT1 over WEE1
T2 construct: purchased Thermo Fisher PR7373A
T2 sequence (P30291 whole entry): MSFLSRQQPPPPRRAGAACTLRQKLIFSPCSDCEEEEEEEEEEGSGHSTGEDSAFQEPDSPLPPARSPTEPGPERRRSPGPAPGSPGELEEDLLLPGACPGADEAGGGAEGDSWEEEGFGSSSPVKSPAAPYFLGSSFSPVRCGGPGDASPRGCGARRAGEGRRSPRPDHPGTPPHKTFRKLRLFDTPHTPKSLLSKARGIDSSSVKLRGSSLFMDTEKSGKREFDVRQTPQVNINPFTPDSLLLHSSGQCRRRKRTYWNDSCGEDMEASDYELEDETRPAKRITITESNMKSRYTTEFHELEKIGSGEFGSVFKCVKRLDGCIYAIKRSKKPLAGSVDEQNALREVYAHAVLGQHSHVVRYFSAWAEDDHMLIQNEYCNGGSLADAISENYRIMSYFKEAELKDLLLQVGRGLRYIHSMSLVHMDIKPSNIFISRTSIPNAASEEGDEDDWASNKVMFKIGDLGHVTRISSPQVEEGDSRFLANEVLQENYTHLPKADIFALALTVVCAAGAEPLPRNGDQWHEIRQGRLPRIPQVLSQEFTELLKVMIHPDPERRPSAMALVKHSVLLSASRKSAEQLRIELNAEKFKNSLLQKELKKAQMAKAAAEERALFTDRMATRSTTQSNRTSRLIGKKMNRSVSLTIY
Method in brief: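 WEE1 at 15 nM final in 50 mM HEPES pH 7.5, 10 mM MgCl2, 1 mM EGTA, 0.01% Brij-35, 1% DMSO; reaction started with 30 µM ATP, 60 min at 26 °C. ADP-Glo luminescence; IC50 from dose-response curves, replicates within 3-fold and r2 >0.9.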

OVCAR 3 cells = experiment: Cancer cell line proliferation assay, ATP-based cell viability (Cell Titre Glow), OVCAR 3 (CCNE1-amplified); details: KYSE30 (normal CCNE1) GI50 vs. OVCAR 3 (CCNE1-amplified) GI50
Method in brief: (§1)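 GI50 values, the concentrations halving cell growth, were derived from ATP-based luminescence (Cell Titre Glo) after PKMYT1 inhibitor exposure. Cells tested were OVCAR 3, an ovarian line with amplified CCNE1, and KYSE-30, which has normal CCNE1.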

KYSE-30 cells = experiment: Cancer cell line proliferation assay, ATP-based cell viability (Cell Titre Glow), KYSE-30 (normal CCNE1); details: Homo sapiens, KYSE-30 cells (normal CCNE1), concentration that achieves 50% cell growth proliferation inhibition, read-out: KYSE30 Gl50
Method in brief: as §1

[1] = target: T3, Cellular PKMYT1 Biomarker CDK1 pT14 (Homo sapiens, UniProt Q99640); experiment: Inhibition of cellular PKMYT1 biomarker CDK1 pT14 in OVCAR 3 cells (immunoblot); type: cell-based; details: 20 hours incubation
T3 construct: read-out CDK1 phospho-T14 immunoblot
T3 sequence (Q99640 1-499): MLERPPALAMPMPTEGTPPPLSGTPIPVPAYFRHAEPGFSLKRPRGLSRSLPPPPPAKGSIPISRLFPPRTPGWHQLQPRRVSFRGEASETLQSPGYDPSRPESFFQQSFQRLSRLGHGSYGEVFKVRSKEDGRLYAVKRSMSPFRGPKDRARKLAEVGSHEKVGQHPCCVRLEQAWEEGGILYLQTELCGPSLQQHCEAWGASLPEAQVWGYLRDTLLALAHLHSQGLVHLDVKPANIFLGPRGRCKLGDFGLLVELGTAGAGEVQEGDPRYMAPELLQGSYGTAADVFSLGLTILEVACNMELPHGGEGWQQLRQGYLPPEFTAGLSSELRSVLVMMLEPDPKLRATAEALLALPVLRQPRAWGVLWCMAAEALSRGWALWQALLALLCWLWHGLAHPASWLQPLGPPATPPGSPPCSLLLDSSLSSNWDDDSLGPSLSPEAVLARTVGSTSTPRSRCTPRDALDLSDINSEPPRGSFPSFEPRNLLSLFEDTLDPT
Procedure: To determine compound PKMYT1 IC50 in a cellular assay, OVCAR 3 cells were incubated at 37° C. in 5% CO2 atmosphere. The cells were maintained in RPMI medium supplemented with 20% foetal bovine serum, 1X non essential amino acids, 1 mM sodium pyruvate, Glutamax and insulin. Cells were seeded into 12-well plates at low density (50,000-200,000 cells per well), grown to confluence (~350-400,000 cells per well) and then treated with a range of concentrations of PKMYT1 inhibitors. The cells were incubated 20 hours and then harvested into 1X Laemmli Sample Buffer (BIORAD) without 2-mercaptoethanol, heated to 95° C. for 5 min, centrifuged and sonicated using a microprobe for 15 sec, 21W to shear the DNA.
The samples were analysed by immunoblot on a Jess Automated Western Blot System (BioTechne). The samples were separated using the 12-230 kDa Separation Module (BioTechne,) and blotted using an anti-CDK1 phospho T14 antibody (Abcam, #ab58509) and an anti-vinculin antibody (Abcam, #126002). Specific binding was detected by fluorescence using the Anti-Rabbit Detection Module (BioTechne, #DM-001), quantified using Compass for Simple Western software, and IC50 values were calculated by regression analysis in GraphPad Prism.

[2] = PKMYT1 kinase domain 15 nM, banded values
[3] = 15 nM PKMYT1 kinase domain, 500 µM ATP, 60 minutes at 26° C., banded
[4] = 15 nM WEE1, 60 minutes at 26° C., banded
[5] = banded, ">N" = at least in this band but could be higher

Structure (SMILES) | IC50 (Human PKMYT1; [2]) | IC50 (WEE1; WEE1 15 nM, banded values) | PKMYT1 vs. WEE1 selectivity (WEE1; banded) | IC50 [1] | IC50 (Human PKMYT1; [3]) | IC50 (WEE1; [4]) | PKMYT1 vs. WEE1 selectivity (WEE1; [5]) | Selectivity ratio KYSE30 Gl50 vs. OVCAR3 Gl50 (OVCAR 3 cells) | GI50 (KYSE-30 cells)
Cc1cn(CC#N)nc1Nc1ncc(C(=O)Nc2c(C)ccc(O)c2Br)s1 [BAA-584, N-(2-Bromo-3-hydroxy-6-methylphenyl)-2-((1-(cyanomethyl)-4-methyl-1H-pyrazol-3-yl)amino)thiazole-5-carboxamide] | < 50 nM | 50 to 1000 nM | W (10-<100 fold) | 100 to 1000 nM |  |  |  | Y (>20 fold) | > 5000 nM
Cc1ccc(O)c(C)c1NC(=O)c1cnc(Nc2ncnc3[nH]ccc23)s1 [BAA-441, 2-((7H-pyrrolo[2,3-d]pyrimidin-4-yl)amino)-N-(3-hydroxy-2,6-dimethylphenyl)thiazole-5-carboxamide] | < 50 nM | 1000 to 11000 nM | W (10-<100 fold) | < 100 nM |  |  |  | Y (>20 fold) | > 5000 nM
Cc1cn(-c2cnn(C(C)C)c2)nc1Nc1ncc(C(=O)Nc2c(C)ccc(O)c2C)s1 [BAA-391, N-(3-hydroxy-2,6-dimethylphenyl)-2-((1′-isopropyl-4-methyl-1′H-[1,4′-bipyrazol]-3-yl)amino)thiazole-5-carboxamide] |  |  |  | < 100 nM | < 50 nM | 1000 to 11000 nM | X (100-<1000 fold) | Y (>20 fold) | 500 to 5000 nM
COCC1(N(C)C(=O)Cn2cc(C)c(Nc3ncc(C(=O)Nc4c(C)ccc(O)c4C)s3)n2)CC1 [BAA-607] | < 50 nM | 1000 to 11000 nM | X (100-<1000 fold) | < 100 nM |  |  |  | Y (>20 fold) | > 5000 nM
CCn1nc(Nc2ncc(C(=O)Nc3c(C)ccc(O)c3C)s2)c2cc(F)ccc21 [BAA-459, 2-((1-ethyl-5-fluoro-1H-indazol-3-yl)amino)-N-(3-hydroxy-2,6-dimethylphenyl)thiazole-5-carboxamide] | 50 to 1000 nM | > 11000 nM | X (100-<1000 fold) | < 100 nM |  |  |  | Y (>20 fold) | > 5000 nM
Cc1ccc(O)c(C)c1NC(=O)c1cnc(Nc2cccc(N(C)CCC#N)n2)s1 [BAA-401, 2-((6-((2-cyanoethyl)(methyl)amino)pyridin-2-yl)amino)-N-(3-hydroxy-2,6-dimethylphenyl)thiazole-5-carboxamide] | < 50 nM | 1000 to 11000 nM | W (10-<100 fold) | < 100 nM |  |  |  | Y (>20 fold) | 500 to 5000 nM
Cc1ccc(O)c(C)c1NC(=O)c1cnc(Nc2cccc(NC(=O)c3ccc(F)cc3)n2)s1 [BAA-320, 2-((6-(4-fluorobenzamido)pyridin-2-yl)amino)-N-(3-hydroxy-2,6-dimethylphenyl)thiazole-5-carboxamide] |  |  |  | < 100 nM | < 50 nM | > 11000 nM | Y (1000-5000 fold) | Y (>20 fold) | 500 to 5000 nM
Cc1ccc(O)c(C)c1NC(=O)c1cnc(Nc2cc(N3CCOCC3)ccn2)s1 [BAA-402, N-(3-hydroxy-2,6-dimethylphenyl)-2-((4-morpholinopyridin-2-yl)amino)thiazole-5-carboxamide] | < 50 nM | 50 to 1000 nM | W (10-<100 fold) | < 100 nM |  |  |  | Y (>20 fold) | 500 to 5000 nM

More lines, main results first:

IC50 (Human PKMYT1; [2]) | IC50 (WEE1; WEE1 15 nM, banded values) | PKMYT1 vs. WEE1 selectivity (WEE1; banded) | IC50 [1] | IC50 (Human PKMYT1; [3]) | IC50 (WEE1; [4]) | PKMYT1 vs. WEE1 selectivity (WEE1; [5]) | Structure (SMILES) | Selectivity ratio KYSE30 Gl50 vs. OVCAR3 Gl50 (OVCAR 3 cells) | GI50 (KYSE-30 cells)
< 50 nM | > 11000 nM | Y (1000-5000 fold) | 100 to 1000 nM |  |  |  | Cc1cc(F)cnc1Nc1ncc(C(=O)Nc2c(C)ccc(O)c2C)s1 [BAA-419, 2-((5-fluoro-3-methylpyridin-2-yl)amino)-N-(3-hydroxy-2,6-dimethylphenyl)thiazole-5-carboxamide] | Y (>20 fold) | > 5000 nM
< 50 nM | > 11000 nM | Y (1000-5000 fold) | < 100 nM |  |  |  | COc1ccc(F)c(Nc2ncc(C(=O)Nc3c(C)ccc(O)c3C)s2)n1 [BAA-425, 2-((3-fluoro-6-methoxypyridin-2-yl)amino)-N-(3-hydroxy-2,6-dimethylphenyl)thiazole-5-carboxamide] | Y (>20 fold) | 500 to 5000 nM
< 50 nM | 1000 to 11000 nM | X (100-<1000 fold) | < 100 nM |  |  |  | Cc1cn(CC(=O)N2CCCC2C(F)(F)F)nc1Nc1ncc(C(=O)Nc2c(C)ccc(O)c2C)s1 (stereo not drawn) [BAA-493, N-(3-hydroxy-2,6-dimethylphenyl)-2-((4-methyl-1-(2-oxo-2-(2-(trifluoromethyl)pyrrolidin-1-yl)ethyl)-1H-pyrazol-3-yl)amino)thiazole-5-carboxamide] | Y (>20 fold) | > 5000 nM
< 50 nM | 1000 to 11000 nM | X (100-<1000 fold) | < 100 nM |  |  |  | CCc1c[nH]nc1Nc1ncc(C(=O)Nc2c(C)ccc(O)c2C)s1 [BAA-594, 2-((4-Ethyl-1H-pyrazol-3-yl)amino)-N-(3-hydroxy-2,6-dimethylphenyl)thiazole-5-carboxamide] | Y (>20 fold) | > 5000 nM
< 50 nM | 1000 to 11000 nM | X (100-<1000 fold) | < 100 nM |  |  |  | CCn1nc(Nc2ncc(C(=O)Nc3c(C)ccc(O)c3C)s2)c2ccccc21 [BAA-458, 2-((1-ethyl-1H-indazol-3-yl)amino)-N-(3-hydroxy-2,6-dimethylphenyl)thiazole-5-carboxamide] | Y (>20 fold) | 500 to 5000 nM
< 50 nM | 1000 to 11000 nM | X (100-<1000 fold) | < 100 nM |  |  |  | Cc1ccc(O)c(C)c1NC(=O)c1cnc(Nc2nn(CCF)cc2Br)s1 [BAA-585, 2-((4-bromo-1-(2-fluoroethyl)-1H-pyrazol-3-yl)amino)-N-(3-hydroxy-2,6-dimethylphenyl)thiazole-5-carboxamide] | Y (>20 fold) | 500 to 5000 nM
< 50 nM | > 11000 nM | X (100-<1000 fold) | 100 to 1000 nM |  |  |  | Cc1ccc(O)c(C)c1NC(=O)c1cnc(Nc2ccc3ccncc3n2)s1 [BAA-597, 2-((1,7-naphthyridin-2-yl)amino)-N-(3-hydroxy-2,6-dimethylphenyl)thiazole-5-carboxamide] | Y (>20 fold) | 500 to 5000 nM
